Experimental data: patent EP0821003B1, “PEPTIDES AND REMEDY FOR AUTOIMMUNE DISEASES COMPRISING THE SAME” (Aventis Pharma Ltd., priority 1995, dated 2003)
Non-standard residues stand in square brackets, D forms with d. Residues, ends and D or L forms follow the SMILES beside them. No end group written: not given here.

Columns and labels:
[1] = tested on: anti-KLH antibody production; assay: Suppressive effect on anti-KLH antibody production in mice (ELISA of serum IgG); assay type: in vivo, Balb/c mice; conditions: for Anti-KLH IgG antibody titer (unit ± SD): Example 3, 100 µg subcutaneously day 5 and day 3 prior to KLH, blood day 21 after antigen; for Anti-KLH IgG antibody titer (unit ± SD) / Anti-KLH antibody titer (unit ± SD): 8 mice per group; for antibody production (anti-KLH) / Anti-KLH antibody titer (unit ± SD): Example 7; for Anti-KLH antibody titer (unit ± SD): in a similar manner to Example 3
Procedure: Day 5 and day 3 prior to the antigen administration, 100 µg of each Peptide (I) to (VI) of the present invention composed of 9 amino acid residues indicated by Sequence ID No. 1 in the Sequence Listing were dissolved in 200 µl of physiological saline. The resulting solution was subcutaneously administered to 9-week-old Balb/c mice. As a control, a non-administered group to which the same amount of physiological saline was administered was employed. In 200 µl of physiological saline, 25 µg of KLH were dissolved as an antigen and the resulting solution was subcutaneously administered. The blood was collected on day 21 after antigen administration and an antibody titer was measured by the method which is described below.
KLH was diluted to 10 µg/ml with a phosphate buffered physiological saline (PBS). Fifty µl portions of the resulting solution were poured into a 96-well microplate and the plate was allowed to stand at 4iC overnight. After the microplate was washed three times with 0.05% Tween-20-containing PBS (T-PBS), 200 µl portions of 0.5% casein tris-buffered physiological saline (casein TBS) were poured into wells, respectively. […] The microplate was washed three times with T-PBS and 50 µl portions of the mouse serum diluted to 1/200 with casein TBS were poured into the wells, followed by reaction for one hour (primary reaction).
The resulting microplate was washed three times with T-PBS, to which 50 µl portions of an anti-mouse IgG-peroxidase-labeled antibody (TAGO Co.) diluted to 1/4000 with casein TBS were poured. The reaction was effected at room temperature for one hour (secondary reaction). After the completion of the secondary reaction, the plate was washed three times again. Fifty µl portions of a substrate liquid/chromogen (chromogen substrate: Behringwerke AG) were poured into wells, respectively, followed by reaction at room temperature for 30 minutes. After the completion of the reaction, 0.5N diluted sulfuric acid was added to terminate the reaction and an absorbance at 450 nm was measured by a colorimeter ("BEP-II", product of Behringwerke AG/Germany) with the absorbance at 650 nm as a control.
In a similar manner to Example 3, suppressive effects of Peptides (I), (VII) to (XV) on anti-KLH antibody production in mice were studied.

[2] = tested on: anti-OVA antibody production; assay: Suppressive effect on anti-OVA antibody production in mice (ELISA of serum IgG); assay type: in vivo, Balb/c mice; set-up: Anti OVA Ig-G antibody titer (unit): dose or concentration left out as unconfirmed; conditions: for Anti-OVA antibody titer: in a similar manner to Example 2
Procedure: Day 5 and day 3 prior to the antigen administration, Peptide (I) composed of 9 amino acid residues as indicated by Sequence ID No. 1 in the Sequence Listing of the present invention and a synthetic peptide 15 composed of 15 amino acid residues derived from clone 17.2 TcR, which peptide had been reported by Mohapatra et al. as described above, 100 g each, were dissolved in 200 of physiological saline and each solution thus obtained was subcutaneously administered to 9-week-old Balb/c mice. As a control, a non-administered group to which the same amount of physiological saline was administered was employed. In 200 I of physiological saline, 100 g of OVA (Sigma Chemical Co.) were dissolved, followed by subcutaneous administration. Blood was collected on day 21 after antigen administration and an antibody titer was measured by the method described below.
OVA was diluted to 10 µg/ml with phosphate buffered saline (PBS) and 50 I portions of the solution were poured in a 96-well microplate. The coating operation was conducted overnight at […]. The microplate was then washed three times with a 0.05% Tween-20-containing PBS (T-PBS). 200 portions of 0.5% casein-containing tris buffered physiological saline (casein TBS) were poured in each well and the microplate was allowed to stand at room temperature for one hour. The microplate was then washed three times with T-PBS. After the serum of the blood collected from the mice was diluted to 1/200 with 0.5% casein TBS, 50 I portions of the diluted serum were poured in each well and the plate was allowed to stand for one hour (primary reaction).
After the completion of the primary reaction, the microplate was washed three times with T-PBS. Fifty I portions of anti-mouse IgG-peroxidase-labeled antibody (TAGO Co.) diluted to 1/4000 with 0.5% casein TBS were poured in each well, followed by reaction at room temperature for one hour (secondary reaction). After the completion of the secondary reaction, the plate was washed three times again. Fifty I portions of a substrate liquid/chromogen (chromogen substrate: Behringwerke AG) were poured in each well, followed by reaction at room temperature for 30 minutes. After the completion of the reaction, 0.5N diluted sulfuric acid was added to terminate the reaction and an absorbance at 450 nm was measured by a colorimeter ("BEP-II", product of Behringwerke AG/Germany) with an absorbance at 650 nm as a control.
In a similar manner to Example 2, the suppressive effects of Peptides (I), (VII) to (XIV) on the anti-OVA antibody production in mice were measured.

EAE model mice = assay: Onset suppressive effect on EAE model mice (clinical score); assay type: in vivo, SJL mouse; set-up: key to average score ± SD: EAE onset score per Pettinelli et al. 1982 criteria; conditions: for average score ± SD: score 0-6
Procedure: As an antigen, guinea pig spinal chord homogenate was employed. The guinea pig spinal chord homogenate was diluted with PBS to be 6.6 mg/ml, followed by the addition of the equivalent amount of Freund ? s complete adjuvant. The resulting mixture was formed into an emulsion by an ultrasonic sonicator. The resulting emulsion was administered to two areas under the lateral skin in a total amount of 300 µl. Day 5 and day 3 prior to antigen administration, and 5 days a week for 4 weeks after antigen administration, the solution of Peptide (I) dissolved in 100 µl physiological saline was subcutaneously administered to a 14-week old SJL mouse. Incidentally, in order to increase an onset ratio, […] of pertussis toxin (PTX) were intravenously administered as an enhancer on the day of antigen administration and two days after antigen administration. Observation of the onset was performed from day 14 to day 28 after primary antigen administration. The onset was scored based on the following standard criteria [Pettinelli, C. B., Fritz, D. E., and McFarlin, D. E. J. Immunl., 129, No. 3, 1024-1028 (1982)]. In Table 3, values of average score + standard deviation (SD) in each administration group on day 22, day 25 and day 28 after primary antigen administration are shown.

[3] = compared with Peptide (I) administered group
[4] = Example 8, compared with Peptide (I) administered group
[5] = Example 8, compared with the non-administered group and Peptide (I) administered group
[6] = compared with the non-administered group and Peptide (I) administered group

## CC(C)C[C@@H](NC(=O)[C@@H](CCCCN)NC(=O)[C@@H](C)N)C(=O)N[C@@H](C(=O)N[C@H](Cc1ccccc1)C(=O)NCC(=O)N[C@H](CCCCN)C(=O)NCC(=O)N[C@@H](C(=O)O)[C@H](C)O)[C@H](C)O [Peptide (II)] (H-[dA][dK][dL][dT][dF]G[dK]G[dT]-OH)
[1]
  Anti-KLH IgG antibody titer (unit ± SD): 48.4 ± 13.1 unit

## CC(=O)N[C@H](C)C(=O)N[C@H](CCCCN)C(=O)N[C@H](CC(C)C)C(=O)N[C@@H](C(=O)N[C@H](Cc1ccccc1)C(=O)NCC(=O)N[C@H](CCCCN)C(=O)NCC(=O)N[C@@H](C(=O)O)[C@H](C)O)[C@H](C)O [Peptide (V)] (Ac-[dA][dK][dL][dT][dF]G[dK]G[dT]-OH)
[1]
  Anti-KLH IgG antibody titer (unit ± SD): 37.7 ± 17.7 unit

## CC(=O)N[C@H](C)C(=O)N[C@H](CCCCN)C(=O)N[C@H](CC(C)C)C(=O)N[C@@H](C(=O)N[C@H](Cc1ccccc1)C(=O)NCC(=O)N[C@H](CCCCN)C(=O)NCC(=O)N[C@@H](C(N)=O)[C@H](C)O)[C@H](C)O [Peptide (VI)] (Ac-[dA][dK][dL][dT][dF]G[dK]G[dT]-NH2)
[1]
  Anti-KLH IgG antibody titer (unit ± SD): 29.5 ± 19.5 unit

## AALTFGKG [Peptide (VIII)]
[2]; Example 8, 8 mice per group
  Anti-OVA antibody titer: 65.3 ± 34.7
[1]; [3]
  antibody production (anti-KLH): not suppressed
[1]
  Anti-KLH antibody titer (unit ± SD): 44.9 ± 18.1 unit

## AKATFGKG [Peptide (XIII)]
[2]; [4]
  antibody production (anti-OVA): not suppressed
[2]; Example 8, 8 mice per group
  Anti-OVA antibody titer: 193.5 ± 155.9
[1]; [3]
  antibody production (anti-KLH): not suppressed
[1]
  Anti-KLH antibody titer (unit ± SD): 68.9 ± 25.1 unit

## AKLAFGKG [Peptide (IX)]
[2]; [5]
  antibody production (anti-OVA): significantly suppressed
[2]; Example 8, 8 mice per group
  Anti-OVA antibody titer: 10.4 ± 6.3
[1]; [6]
  antibody production (anti-KLH): significantly suppressed
[1]
  Anti-KLH antibody titer (unit ± SD): 33.9 ± 13.7 unit

## AKLTAGKG [Peptide (XIV)]
[2]; [4]
  antibody production (anti-OVA): not suppressed
[2]; Example 8, 8 mice per group
  Anti-OVA antibody titer: 90.9 ± 89.5
[1]; [3]
  antibody production (anti-KLH): not suppressed
[1]
  Anti-KLH antibody titer (unit ± SD): 59.9 ± 32.8 unit

## AKLTFAKG [Peptide (X)]
[2]; Example 8, 8 mice per group
  Anti-OVA antibody titer: 49.8 ± 28.4
[1]; [6]
  antibody production (anti-KLH): significantly suppressed
[1]
  Anti-KLH antibody titer (unit ± SD): 26.5 ± 22.0 unit

## AKLTFGAG [Peptide (XI)]
[2]; [5]
  antibody production (anti-OVA): significantly suppressed
[2]; Example 8, 8 mice per group
  Anti-OVA antibody titer: 15.3 ± 14.3
[1]; [6]
  antibody production (anti-KLH): significantly suppressed
[1]
  Anti-KLH antibody titer (unit ± SD): 19.9 ± 15.9 unit

## AKLTFGKA [Peptide (XII)]
[2]; Example 8, 8 mice per group
  Anti-OVA antibody titer: 50.9 ± 26.7
[1]; [3]
  antibody production (anti-KLH): not suppressed
[1]
  Anti-KLH antibody titer (unit ± SD): 49.5 ± 40.1 unit

## AKLTFGKG [Peptide (VII)]
[2]; [5]
  antibody production (anti-OVA): significantly suppressed
[2]; Example 8, 8 mice per group
  Anti-OVA antibody titer: 20.9 ± 21.4
[1]; [6]
  antibody production (anti-KLH): significantly suppressed
[1]
  Anti-KLH antibody titer (unit ± SD): 25.9 ± 15.4 unit

## AKLTFGKGT [Peptide (I)]
[2]; Example 2, compared with the non-administered group
  antibody production (anti-OVA): significantly suppressed
[2]; Example 2, subcutaneously day 5 and day 3 prior to OVA, blood day 21 after antigen, 8 mice per group, mean ± spread
  Anti OVA Ig-G antibody titer (unit): 8.8 ± 10.8 unit
[2]; Example 8, 8 mice per group
  Anti-OVA antibody titer: 23.8 ± 12.4
[1]
  Anti-KLH IgG antibody titer (unit ± SD): 78.7 ± 28.3 unit
  Anti-KLH antibody titer (unit ± SD): 39.5 ± 16.1 unit
EAE model mice; 1 µg/body subcutaneously, Day 22 after primary antigen administration
  average score ± SD: 1.6 ± 1.8
EAE model mice; 1 µg/body subcutaneously, Day 25 after primary antigen administration
  average score ± SD: 0.9 ± 1.1
EAE model mice; 1 µg/body subcutaneously, Day 28 after primary antigen administration
  average score ± SD: 1.8 ± 1.9
EAE model mice; 5 µg/body group compared with the physiological saline group
  onset of EAE: suppressed on day 25 and day 28 with a significant difference of 5%
EAE model mice; 5 µg/body subcutaneously, Day 22 after primary antigen administration
  average score ± SD: 0.4 ± 0.7
EAE model mice; 5 µg/body subcutaneously, Day 25 after primary antigen administration
  average score ± SD: 1.0 ± 1.1
EAE model mice; 5 µg/body subcutaneously, Day 28 after primary antigen administration
  average score ± SD: 0.7 ± 0.8
EAE model mice; 25 µg/body group compared with the physiological saline group, from day 22
  onset of EAE: suppressed from day 22 with a significant difference of 5%
EAE model mice; 25 µg/body group compared with the physiological saline group, from day 25
  onset of EAE: suppressed with a significant difference of 1%
EAE model mice; 25 µg/body subcutaneously, Day 22 after primary antigen administration
  average score ± SD: 0.3 ± 0.4
EAE model mice; 25 µg/body subcutaneously, Day 25 after primary antigen administration
  average score ± SD: 0.1 ± 0.3
EAE model mice; 25 µg/body subcutaneously, Day 28 after primary antigen administration
  average score ± SD: 0.0 ± 0.0
EAE model mice; administration of Peptide (I), overall statement
  onset of EAE: suppressed

## Ac-AKLTFGKGT [Peptide (III)]
[1]
  Anti-KLH IgG antibody titer (unit ± SD): 50.1 ± 25.8 unit

## KLTFGKG [Peptide (XV)]
[1]; [3]
  antibody production (anti-KLH): not suppressed
[1]
  Anti-KLH antibody titer (unit ± SD): 86.4 ± 27.8 unit
